The nature of data set [1]: Acute toxicity (LD50) in the mouse. Conditions: in vivo; for LD50 at 24 h: ip, read-out: Approximate Acute Toxicity (24 hrs.) In the Mouse, LD50; for LD50: Table I, unit, species and route not given. On the procedure: 5-(3,4,5-trimethoxybenzamido)-2-methyl-1,2,3,4-tetrahydroisoquinoline (M-20) in mice has an LD-50 of about 125 to 250 mg/kg intraperitoneally.
(§1) Additional compounds have been tested. The toxicity data for the additional compounds tested, and their identity, is given in the following Table II while the blood pressure lowering activity of the compounds is given in the following Table III. The heading "Example Number" in the tables refers to the working example herein which discloses the compounds and its preparation. The test procedure used for determining the blood pressure lowering activity of the compounds is the same as that previously set forth herein. However, the figures in Table III are expressed as percentage change in blood pressure, rather than in mm of mercury change in blood pressure, as presented in Table I herein.
Approximate Acute Toxicity (24 hrs.)
(a) Suspension in 1% tragacanth
(b) Solution in distilled water
(c) Solubilized with the aid of dilute acid

In data set [2] the test system is systolic blood pressure of deoxycorticosterone acetate hypertensive rats. Description: Hypotensive activity in DCA/saline hypertensive rats (systolic blood pressure, tail cuff). Type of data set: in vivo, rat (male, CD strain). The following applies: for Percent Change in Pressure from Control ± S.E., 1 Hour / Percent Change in Pressure from Control ± S.E., 2 Hours / Percent Change in Pressure from Control ± S.E., 4 Hours / Percent Change in Pressure from Control ± S.E., 24 Hours: 50 mg/kg i.p., systolic pressure, * <0.05 significance (Newman-Keuls); for Lowering of Blood Pressure in Hypertensive rate in mm's of Hg., 1 hr. / Lowering of Blood Pressure in Hypertensive rate in mm's of Hg., 2 hrs. / Lowering of Blood Pressure in Hypertensive rate in mm's of Hg., 4 hrs. / Lowering of Blood Pressure in Hypertensive rate in mm's of Hg., 24 hrs. / compounds which appear most active from Table I: 50 mg/kg intraperitoneal; for Lowering of Blood Pressure in Hypertensive rate in mm's of Hg., 1 hr. / Lowering of Blood Pressure in Hypertensive rate in mm's of Hg., 2 hrs. / Lowering of Blood Pressure in Hypertensive rate in mm's of Hg., 4 hrs. / Lowering of Blood Pressure in Hypertensive rate in mm's of Hg., 24 hrs.: change vs predrug control, six rats; for compounds which appear most active from Table I: qualitative ranking. The method, then:
Hypertension was produced in weanling (30-day old) male rats of the CD strain obtained from the Charles River Breeding Laboratories (Wilmington, Mass.) by subcutaneously implanting about the dorsal surface of the neck a pellet of deoxycorticosterone acetate (DCA) containing 10 mg DCA in a mixture of Carbowax 4000 (Union Carbide) and Flexowax C light (Glyco Products). Their drinking water was replaced by a 1% sodium chloride solution, a procedure known to facilitate the development of an experimental hypertension, and they had free access to chow. Systolic blood pressure in the caudal arteries was measured indirectly by a pneumatic pulse transducer and a tail pressure cuff on a Physiograph Four recorder (Narco Bio-Systems, Inc., Houston, Texas) in unanesthetized but restrained rats prewarmed to 40° C., 10-15 minutes prior to the determination. The rats were kept at a temperature of 40° C. for all determinations of systolic pressure in an attempt to minimize variations in blood pressure due to marked changes in arterial tone caused by changes in temperature. Blood pressures were measured at intervals in the DCA-treated rats given saline and in non-treated control rats. After 20 days, the mean systolic pressure in the DCA-treated rats was above 150 mm Hg. Hypertension was regarded as being established in the rats at this stage and they were at intervals, usually beginning with the 30th day after DCA-implant in testing for hypotensive activity. Following a series of control blood pressure readings, a dose of 50 mg/kg of the compound under investigation was administered by intraperitoneal injection either in solution or as a suspension in 1% tragacanth solution to groups of six hypertensive rats. Blood pressures were redetermined at 1, 2, 4 and 24 hour periods following injection. At each interval, the systolic pressure was measured a minimum of five times in each rat and the average value was calculated. Mean values for the group were calculated from the individual average values and compared with their predrug control levels. The statistical significance of the changes produced by the compounds, in the doses employed, was tested by the "t" test as well as by an analysis of variance. The reductions in blood pressure obtained with the indicated representative tetrahydroisoquinoline compounds are shown in Table I. The code number for the compound and the example herein showing its preparation are both given in Table I.
as §1

[3] abbreviates: solubilized with the aid of dilute acid.

The term LD50 denotes the dose expected to kill half of the subjects tested.

Structures can show the parent of a compound that is named as a salt. Where two headings read alike, the source gives them in different places.

As for `Cc1cccc(C)c1C(=O)Nc1cccc2c1CCN(C)C2` [M-58, 5-(2,6-Dimethylbenzamido)-2-methyl-1,2,3,4-tetrahydroisoquinoline], the LD50 at 24 h in data set [1] (setting [3]) is 125 to 250 mg/kg. In data set [2], the “Percent Change in Pressure from Control ± S.E., 1 Hour” value (“Percent Change in Pressure … 1 Hour” below) was -6.1 ± 1.7%; the “Percent Change in Pressure from Control ± S.E., 2 Hours” value (“Percent Change in Pressure … 2 Hours” for short) was -2.4 ± 0.6%; the “Percent Change in Pressure from Control ± S.E., 4 Hours” value is reported as -5.2 ± 1.8%; the “Percent Change in Pressure from Control ± S.E., 24 Hours” value (shortened to “Percent Change in Pressure … 24 Hours”) is on record as “+2.0 ± 2.1%”.
With `COc1cc(OC)c(C(=O)Nc2cccc3c2CCN(C)C3)cc1OC` [M-61, 5-(2,4,5-Trimethoxybenzamido)-2-methyl-1,2,3,4-tetrahydroisoquinoline], the LD50 in data set [1] lay in the range of 68 to 125 mg/kg. Besides, in data set [2], the “Lowering of Blood Pressure in Hypertensive rate in mm's of Hg., 1 hr.” value (“Lowering of Blood Pressure … 1 hr.” for short) is given as -15±4 mm's of Hg; the “Lowering of Blood Pressure in Hypertensive rate in mm's of Hg., 2 hrs.” value (“Lowering of Blood Pressure … 2 hrs.” for short) is reported as -19±5 mm's of Hg; the “Lowering of Blood Pressure in Hypertensive rate in mm's of Hg., 4 hrs.” value (from here on “Lowering of Blood Pressure … of Hg., 4 hrs.”) is reported as -15±4 mm's of Hg; the “Lowering of Blood Pressure in Hypertensive rate in mm's of Hg., 24 hrs.” value (from here on “Lowering of Blood Pressure … 24 hrs.”) is -6±6 mm's of Hg.
In data set [1], `CCCN1CCc2c(cccc2NC(=O)c2ccc(OC)c(OC)c2)C1` [M-47, 5-(3,4-Dimethoxybenzamido)-2-n-propyl-1,2,3,4-tetrahydroisoquinoline] gave a median lethal dose (LD50) of 250 to 500 mg/kg. Also, in data set [2], the “Lowering of Blood Pressure … 1 hr.” value is -35±7 mm's of Hg; the “Lowering of Blood Pressure … 2 hrs.” value is given as -46±11 mm's of Hg; the “Lowering of Blood Pressure … of Hg., 4 hrs.” value is -41±8 mm's of Hg; the “Lowering of Blood Pressure … 24 hrs.” value is on record as -22±4 mm's of Hg. Moreover, the “compounds which appear most active from Table I” value in data set [2] is recorded as “most active”.
Consider `COc1cc(C(=O)Nc2ccc3c(c2)CCN(C)C3)cc(OC)c1OC` [M-72, 6-(3,4,5-Trimethoxybenzamido)-2-methyl-1,2,3,4-tetrahydroisoquinoline HCl], for which, in data set [1] (solution in distilled water), the LD50 at 24 h is 188 to 250 mg/kg. In addition, in data set [2], the “Percent Change in Pressure … 1 Hour” value is -21.6 ± 1.7%; the “Percent Change in Pressure … 2 Hours” value was -19.4 ± 4.0%; the “Percent Change in Pressure from Control ± S.E., 4 Hours” value was -11.9 ± 3.4%; the “Percent Change in Pressure … 24 Hours” value is on record as -3.8 ± 1.3%.
As for `CCc1cccc(CC)c1C(=O)Nc1cccc2c1CCN(C)C2` [M-66, 5-(2,6-Diethylbenzamido)-2-methyl-1,2,3,4-tetrahydroisoquinoline], in data set [1] (setting [3]), the LD50 at 24 h is 125 to 250 mg/kg. Besides, in data set [2], the “Percent Change in Pressure … 1 Hour” value is given as -5.7 ± 3.0%; the “Percent Change in Pressure … 2 Hours” value was -7.5 ± 4.6%; the “Percent Change in Pressure from Control ± S.E., 4 Hours” value was -6.1 ± 2.8%; the “Percent Change in Pressure … 24 Hours” value was -2.1 ± 2.3%.
In data set [1], `CN1CCc2c(cccc2NC(=O)c2ccccc2)C1` [M-54, 5-(benzamido)-2-methyl-1,2,3,4-tetrahydroisoquinoline] showed an LD50 of 125 to 250 mg/kg. Also, in data set [2], the “Lowering of Blood Pressure … 1 hr.” value is -7±7 mm's of Hg; the “Lowering of Blood Pressure … 2 hrs.” value was -14±6 mm's of Hg; the “Lowering of Blood Pressure … of Hg., 4 hrs.” value is -15±6 mm's of Hg; the “Lowering of Blood Pressure … 24 hrs.” value was -10±3 mm's of Hg.
Molecule `CN1CCc2c(cccc2NC(=O)c2ccccc2F)C1` [M-68, 5-(2-Fluorobenzamido)-2-methyl-1,2,3,4-tetrahydroisoquinoline] displayed an LD50 in data set [1] of 250 to 500 mg/kg. Further, in data set [2], the “Lowering of Blood Pressure … 1 hr.” value was -13±5 mm's of Hg; the “Lowering of Blood Pressure … 2 hrs.” value is -10±5 mm's of Hg; the “Lowering of Blood Pressure … of Hg., 4 hrs.” value is on record as -11±4 mm's of Hg; the “Lowering of Blood Pressure … 24 hrs.” value is -20±4 mm's of Hg.
The like results for `CN1CCc2c(cccc2NC(=O)c2ccccc2Br)C1` [M-60, 5-(2-Bromobenzamido)-2-methyl-1,2,3,4-tetrahydroisoquinoline] were, in that order, 125 to 250 mg/kg, -12±4 mm's of Hg, -10±8 mm's of Hg, -20±3 mm's of Hg and -26±4 mm's of Hg.
Molecule `COc1cc(C(=O)Nc2cccc3c2CN(C)CC3)cc(OC)c1OC` [M-65, 8-(3,4,5-Trimethoxybenzamido)-2-methyl-1,2,3,4-tetrahydroisoquinoline] returned a 50% lethal dose (LD50) in data set [1] of 250 to 500 mg/kg. Further, in data set [2], the “Lowering of Blood Pressure … 1 hr.” value was -55±10 mm's of Hg; the “Lowering of Blood Pressure … 2 hrs.” value is given as -44±8 mm's of Hg; the “Lowering of Blood Pressure … of Hg., 4 hrs.” value was -27±3 mm's of Hg; the “Lowering of Blood Pressure … 24 hrs.” value is -21±7 mm's of Hg. In addition, the “compounds which appear most active from Table I” value in data set [2] is recorded as “most active”.
Turning to `COc1ccc(C(=O)Nc2cccc3c2CCNC3)cc1` [M-44, 5-(4-Methoxybenzamido)-1,2,3,4-tetrahydroisoquinoline HCl], in data set [1] (suspension in 1% tragacanth), the LD50 at 24 h lay in the range of 500 to 1000 mg/kg. Moreover, in data set [2], the “Percent Change in Pressure … 1 Hour” value is -8.8 ± 4.8%; the “Percent Change in Pressure … 2 Hours” value is listed as -6.5 ± 3.7%; the “Percent Change in Pressure from Control ± S.E., 4 Hours” value was -8.3 ± 2.4%; the “Percent Change in Pressure … 24 Hours” value is reported as -6.4 ± 1.3%.
Regarding `COc1cccc(OC)c1C(=O)Nc1cccc2c1CCN(C)C2` [M-57, 5-(2,6-Dimethoxybenzamido)-2-methyl-1,2,3,4-tetrahydroisoquinoline], in data set [1], the LD50 was 250 to 500 mg/kg. Further, in data set [2], the “Lowering of Blood Pressure … 1 hr.” value was -2±8 mm's of Hg; the “Lowering of Blood Pressure … 2 hrs.” value is listed as -7±5 mm's of Hg; the “Lowering of Blood Pressure … of Hg., 4 hrs.” value is recorded as -14±10 mm's of Hg; the “Lowering of Blood Pressure … 24 hrs.” value is given as -14±10 mm's of Hg.
In data set [1], `CN1CCc2c(cccc2NC(=O)c2ccccc2Cl)C1` [M-63, 5-(2-Chlorobenzamido)-2-methyl-1,2,3,4-tetrahydroisoquinoline] had an LD50 of 125 to 188 mg/kg. In addition, in data set [2], the “Lowering of Blood Pressure … 1 hr.” value is recorded as -25±2 mm's of Hg; the “Lowering of Blood Pressure … 2 hrs.” value is on record as -36±4 mm's of Hg; the “Lowering of Blood Pressure … of Hg., 4 hrs.” value is on record as -34±4 mm's of Hg; the “Lowering of Blood Pressure … 24 hrs.” value is -28±4 mm's of Hg. For the same molecule, the “compounds which appear most active from Table I” value in data set [2] is reported as “most active”.
As to `CN1CCc2c(cccc2NC(=O)c2ccccc2I)C1` [M-70, 5-(2-Iodobenzamido)-2-methyl-1,2,3,4-tetrahydroisoquinoline], in data set [1] (setting [3]), the LD50 at 24 h was below 31 mg/kg. Also, in data set [2], the “Percent Change in Pressure … 1 Hour” value was -6.8 ± 2.1%; the “Percent Change in Pressure … 2 Hours” value is recorded as -9.9 ± 2.1%; the “Percent Change in Pressure from Control ± S.E., 4 Hours” value is reported as -5.7 ± 1.9%; the “Percent Change in Pressure … 24 Hours” value was -0.7 ± 2.9%.
As for `CCCN1CCc2c(cccc2NC(=O)c2ccc(OC)cc2)C1` [M-50, 5-(4-methoxybenzamido)-2-n-propyl-1,2,3,4-tetrahydroisoquinoline], the LD50 at 24 h in data set [1] (setting [3]) lay in the range of 125 to 250 mg/kg. Besides, in data set [2], the “Percent Change in Pressure … 1 Hour” value is reported as -11.3 ± 1.9%; the “Percent Change in Pressure … 2 Hours” value is on record as -17.8 ± 1.4%; the “Percent Change in Pressure from Control ± S.E., 4 Hours” value is given as -10.2 ± 2.8%; the “Percent Change in Pressure … 24 Hours” value was -6.2%.

The record behind these values is patent publication US4022900A, “Compositions containing 1,2,3,4-tetrahydroisoquinolines used as hypotensive agents” (Marion Laboratories, Inc., priority 1972, dated 1977).
